Reference: patent US20100056515A1, “BENZIMIDAZOLE COMPOUNDS” (priority 2006, published 2010)

How the values were obtained:
[1] = target: T1, human CRF receptor (Homo sapiens, UniProt P34998); assay: Measurement of CRF Binding Inhibitory Rate (receptor binding experiment with 125I-CRF); conditions: human CRF receptor expressing CHO cellular membrane fraction; 50 pM ovine 125I-CRF; 0.05 nM to 10 μM of compound; room temperature 1.5 hr; read-out: IC50 values (CRF binding inhibition)
T1 construct: expressed in transfected cells; host or cells: CHO cells (membrane fraction)
T1 sequence (P34998 24-415): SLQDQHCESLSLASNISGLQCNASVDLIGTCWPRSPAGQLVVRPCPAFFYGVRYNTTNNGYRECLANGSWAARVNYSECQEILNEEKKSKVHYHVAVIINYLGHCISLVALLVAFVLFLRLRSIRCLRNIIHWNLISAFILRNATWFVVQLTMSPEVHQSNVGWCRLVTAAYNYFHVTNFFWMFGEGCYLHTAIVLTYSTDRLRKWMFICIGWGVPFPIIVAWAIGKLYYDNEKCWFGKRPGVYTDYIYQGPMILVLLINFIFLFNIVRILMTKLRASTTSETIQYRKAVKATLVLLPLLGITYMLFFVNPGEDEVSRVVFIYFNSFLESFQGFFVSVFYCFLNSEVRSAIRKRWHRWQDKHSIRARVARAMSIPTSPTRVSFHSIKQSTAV
Protocol: Measurement of CRF Binding Inhibitory Rate
A receptor binding experiment was carried out using a human CRF receptor expressing CHO cellular membrane fraction and ovine CRF, [^125I]-tyr^0(^125I-CRF). 1000 nM of a test compound was incubated with 1 μg of human CRF receptor expressing CHO cellular membrane fraction and 50 pM of ^125I-CRF in a binding assay buffer (50 mM Tris-HCl, 5 mM EDTA, 10 mM MgCl2, 0.05% CHAPS, 0.1% BSA, 0.5 mM PMSF, 0.1 μg/mL pepstatin, 20 μg/mL leupeptin, pH 7.5). In addition, for measuring nonspecific binding (NSB), 0.1 μM unlabelled human Urocortin was incubated with 5 μg of human CRF receptor expressing CHO cellular membrane fraction and 50 pM of ^125I-CRF in a binding assay buffer. After a binding reaction was carried out at room temperature for 1.5 hr, the membrane was entrapped on a glass filter (UniFilter plate GF-C/Perkin Elmer) by suction filtration using a cell harvester (Perkin Elmer), and washed with ice-cooled 50 mM Tris-HCl (pH 7.5). After drying the glass filter, a liquid scintillation cocktail (Microscinti 0, Perkin Elmer) was added, and the radioactivity of ^125I-CRF remaining on a glass filter was measured using Topcount (Perkin Elmer).
(TB-SB)/(TB-NSB)×100 (SB: radioactivity when a compound is added, TB: maximum binding radioactivity, NSB: nonspecific binding radioactivity) were calculated to obtain binding inhibitory rates under the range of the presence from 0.05 nM to 10 μM of each compounds. The IC50 values were calculated by using GraphPad Prism software.

Structure (SMILES): CCC(CC)c1ccc(Cl)c2nc(Oc3c(Cl)cc(Cl)cc3C#N)n(C)c12 [Example 31, 3,5-Dichloro-2-{[4-chloro-7-(1-ethylpropyl)-1-methyl-1H-benzimidazol-2-yl]oxy}benzonitrile]
- IC50 [1]: < 1000 nM
- melting point: 155 to 156 °C

Structure (SMILES): CCC(CC)c1ccc(OC)c2nc(Oc3c(C)cc(OC(F)(F)F)cc3CN(C)C)n(C)c12.Cl [Example 15, 1-[2-{[7-(1-Ethylpropyl)-4-methoxy-1-methyl-1H-benzimidazol-2-yl]oxy}-3-methyl-5-(trifluoromethoxy)phenyl]-N,N-dimethylmethanamine Hydrochloride]
- IC50 [1]: < 1000 nM
- melting point: 92 to 94 °C

Structure (SMILES): CCC(CC)c1ccc(Cl)c2nc(Oc3c(C)cc([S+](C)[O-])cc3Cl)n(C)c12 (centres unmarked) [Example 37, 4-Chloro-2-[2-chloro-6-methyl-4-(methylsulfinyl)phenoxy]-7-(1-ethylpropyl)-1-methyl-1H-benzimidazole]
- IC50 [1]: < 1000 nM
- melting point: 182 to 184 °C

Structure (SMILES): CCC(CC)c1ccc(OC)c2nc(Oc3c(Cl)cc(Cl)cc3N(C)C)n(C)c12 [Example 7, 3,5-Dichloro-2-{[7-(1-ethylpropyl)-4-methoxy-1-methyl-1H-benzimidazol-2-yl]oxy}-N,N-dimethylaniline]
- IC50 [1]: < 1000 nM
- melting point: 173 to 175 °C

Structure (SMILES): CCC(CC)c1ccc(OC)c2nc(Nc3ccc(Cl)cc3Cl)n(C)c12 [Example 20, N-(2,4-Dichlorophenyl)-7-(1-ethylpropyl)-4-methoxy-1-methyl-1H-benzimidazol-2-amine]
- IC50 [1]: < 1000 nM
- melting point: 198 to 200 °C

Structure (SMILES): CCC(CC)c1ccc(Cl)c2nc(Oc3c(Cl)cc(Cl)cc3-n3ccnc3)n(C)c12 [Example 27, 4-Chloro-2-[2,4-dichloro-6-(1H-imidazol-1-yl)phenoxy]-7-(1-ethylpropyl)-1-methyl-1H-benzimidazole]
- IC50 [1]: < 1000 nM
- melting point: 134 to 135 °C

Structure (SMILES): CCC(CC)c1ccc(Cl)c2nc(Oc3c(C)cc(SC)cc3Cl)n(C)c12 [Example 36, 4-Chloro-2-[2-chloro-6-methyl-4-(methylthio)phenoxy]-7-(1-ethylpropyl)-1-methyl-1H-benzimidazole]
- IC50 [1]: < 1000 nM
- melting point: 141 to 143 °C

Structure (SMILES): CCC(CC)c1ccc(Cl)c2nc(Nc3c(C)cc(Cl)cc3SC)n(C)c12 [Example 50, 4-Chloro-N-[4-chloro-2-methyl-6-(methylthio)phenyl]-7-(1-ethylpropyl)-1-methyl-1H-benzimidazol-2-amine]
- IC50 [1]: < 1000 nM
- melting point: 167 to 169 °C

Structure (SMILES): CCC(CC)c1ccc(Cl)c2nc(Oc3c(Cl)cc(Cl)cc3N3CCN(C)CC3)n(C)c12 [Example 26, 4-Chloro-2-[2,4-dichloro-6-(4-methylpiperazin-1-yl)phenoxy]-7-(1-ethylpropyl)-1-methyl-1H-benzimidazole]
- IC50 [1]: < 1000 nM
- melting point: 162 to 164 °C

Structure (SMILES): CCC(CC)c1ccc(OC)c2nc(Oc3ccc(OC(F)(F)F)cc3Br)n(C)c12 [Example 10, 2-[2-Bromo-4-(trifluoromethoxy)phenoxy]-7-(1-ethylpropyl)-4-methoxy-1-methyl-1H-benzimidazole]
- IC50 [1]: < 1000 nM
- melting point: 117 to 118 °C

Structure (SMILES): CCC(CC)c1ccc(Cl)c2nc(Oc3c(Cl)cc(Cl)c4c3CN(C)C4)n(C)c12 [Example 55, 4-Chloro-2-[(5,7-dichloro-2-methyl-2,3-dihydro-1H-isoindol-4-yl)oxy]-7-(1-ethylpropyl)-1-methyl-1H-benzimidazole]
- IC50 [1]: < 1000 nM
- melting point: 148 to 149 °C

Structure (SMILES): CCC(CC)c1ccc(OC)c2nc(Oc3c(F)cc(Br)cc3Cl)n(C)c12 [Example 81, 2-(4-Bromo-2-chloro-6-fluorophenoxy)-7-(1-ethylpropyl)-4-methoxy-1-methyl-1H-benzimidazole]
- IC50 [1]: < 1000 nM
- melting point: 129 to 131 °C

Structure (SMILES): CCC(CC)c1ccc(OC)c2nc(Oc3c(Cl)cc(N(C)C)cc3Cl)n(C)c12 [Example 2, 3,5-Dichloro-4-{[7-(1-ethylpropyl)-4-methoxy-1-methyl-1H-benzimidazol-2-yl]oxy}-N,N-dimethylaniline]
- IC50 [1]: < 1000 nM
- melting point: 176 to 177 °C

Structure (SMILES): CCC(CC)c1ccc(Cl)c2nc(Oc3c(Cl)cc(Cl)cc3CN3CCCC3)n(C)c12 [Example 78, 4-Chloro-2-[2,4-dichloro-6-(pyrrolidin-1-ylmethyl)phenoxy]-7-(1-ethylpropyl)-1-methyl-1H-benzimidazole]
- IC50 [1]: < 1000 nM
- melting point: 122 to 123 °C

Structure (SMILES): CCC(CC)c1ccc(Cl)c2nc(Oc3ccc(N(C)C)cc3Cl)n(C)c12 [Example 83, 3-Chloro-4-{[4-chloro-7-(1-ethylpropyl)-1-methyl-1H-benzimidazol-2-yl]oxy}-N,N-dimethylaniline]
- IC50 [1]: < 1000 nM
- melting point: 148 to 149 °C

Structure (SMILES): CCC(CC)c1ccc(Br)c2nc(Oc3c(C)cc(Cl)cc3Cl)n(C)c12 [Example 70, 4-Bromo-2-(2,4-dichloro-6-methylphenoxy)-7-(1-ethylpropyl)-1-methyl-1H-benzimidazole]
- IC50 [1]: < 1000 nM
- melting point: 146 to 147 °C

Structure (SMILES): CCC(CC)c1ccc(Cl)c2nc(Oc3c(Cl)cc(Cl)cc3N3CCCC3)n(C)c12 [Example 29, 4-Chloro-2-(2,4-dichloro-6-pyrrolidin-1-ylphenoxy)-7-(1-ethylpropyl)-1-methyl-1H-benzimidazole]
- IC50 [1]: < 1000 nM
- melting point: 209 to 210 °C

Structure (SMILES): CCC(CC)c1ccc(Cl)c2nc(Oc3c(Br)cc(Br)nc3C)n(C)c12 [Example 74, 4-Chloro-2-[(4,6-dibromo-2-methylpyridin-3-yl)oxy]-7-(1-ethylpropyl)-1-methyl-1H-benzimidazole]
- IC50 [1]: < 1000 nM
- melting point: 202 to 203 °C

Structure (SMILES): CCC(CC)c1ccc(OC)c2nc(Nc3c(C)cc(Cl)cc3Cl)n(C)c12 [Example 88, N-(2,4-Dichloro-6-methylphenyl)-7-(1-ethylpropyl)-4-methoxy-1-methyl-1H-benzimidazol-2-amine]
- IC50 [1]: < 1000 nM
- melting point: 201 to 203 °C

Structure (SMILES): CCC(CC)c1ccc(Cl)c2nc(Oc3c(OC)cc(C)nc3N(C)C)n(C)c12 [Example 52, 3-{[4-Chloro-7-(1-ethylpropyl)-1-methyl-1H-benzimidazol-2-yl]oxy}-4-methoxy-N,N,6-trimethylpyridin-2-amine]
- IC50 [1]: < 1000 nM
- melting point: 202 to 203 °C

Structure (SMILES): CCC(CC)c1ccc(Cl)c2nc(Oc3c(C(F)(F)F)cc(C(F)(F)F)nc3C)n(C)c12 [Example 76, 4-Chloro-7-(1-ethylpropyl)-1-methyl-2-{[2-methyl-4,6-bis(trifluoromethyl)pyridin-3-yl]oxy}-1H-benzimidazole]
- IC50 [1]: < 1000 nM

Structure (SMILES): CCC(CC)c1ccc(O)c2nc(Nc3c(C)cc(Cl)cc3Cl)n(C)c12 [Example 90, 2-[(2,4-Dichloro-6-methylphenyl)amino]-7-(1-ethylpropyl)-1-methyl-1H-benzimidazol-4-ol]
- IC50 [1]: < 1000 nM

Structure (SMILES): CCC(CC)c1ccc(Cl)c2nc(Oc3c(C)cc(OC(F)(F)F)cc3CN(C)C)n(C)c12 [Example 84, 1-[2-{[4-Chloro-7-(1-ethylpropyl)-1-methyl-1H-benzimidazol-2-yl]oxy}-3-methyl-5-(trifluoromethoxy)phenyl]-N,N-dimethylmethanamine]
- IC50 [1]: < 1000 nM

Structure (SMILES): CCC(c1cccc2nc(Nc3c(C)cc(Cl)cc3OC)n(C)c12)N(C)C (centres unmarked) [Example 62, N-(4-Chloro-2-methoxy-6-methylphenyl)-7-[1-(dimethylamino)propyl]-1-methyl-1H-benzimidazol-2-amine]
- IC50 [1]: < 1000 nM
